From publication PMC7614683, “A small molecule PI3Kα activator for cardioprotection and neuroregeneration” (Nature, 2023) come the findings set out here.

One data set deals with A549 cells. Briefly: Phosphoinositide quantification by mass spectrometry, A549. Particulars: A549, 2 min. It is filed as cell-based, human. The method, then: A549 cells (5.10^5) or wild-type MEFs (3.10^5) were plated in complete media onto 3.5 cm dishes or 60 mm dishes respectively for 24 h, prior to FCS-free starvation media for 16 h. MEFs, in addition, were supplemented with arachidonic acid in the FCS-free starvation media as previously described. […] Reactions were terminated in 600 μl ice-cold 1 M HCl and cells scraped and resuspended, then divided into two equal samples in eppendorfs. […] The data are shown as response ratios, calculated by normalizing the multiple reaction monitoring (MRM)-targeted lipid integrated response area to that of a known amount of relevant internal standard. To account for any cell input variability, PIP3 response ratios were normalized to C38:4-PI response ratios; while PI(3,4)P2 response ratios were normalised to PI(4,5)P2 response ratios. Data shown are mean ±SD for n ≥3, except for non-DMSO control in MEF PIP3 measurements where n=1.

For data set [1], the system named is PI3Kα-WT MEFs. Briefly: Mass spectrometry-based phosphoproteomics, PI3Kα-WT MEFs. It counts as cell-based, mouse. To be noted: for number of differentially phosphorylated peptides/sites relative to DMSO: 1938 5 μM or insulin 100 nM. As to the method:
PI3Kα-WT and PI3Kα-KO MEFs, grown in 15 cm dishes, were serum-starved overnight in DMEM with 1% penicillin-streptomycin and stimulated by the addition of 0.05% DMSO, 5 μM 1938 in final 0.05% DMSO or 100 nM insulin (Sigma #I5016) for 15 min or 4 h. Cells were lysed in 500 μl urea lysis buffer [50 mM triethylammonium bicarbonate, 8 M urea, cOmplete™ EDTA-free protease inhibitor cocktail (1:50 dilution) (Roche #11873580001), 1 PhosSTOP tablet (Roche #4906845001) per 10 ml of lysis buffer, 1 mM sodium orthovanadate] and lysates sonicated until clear for ~10 min with cooling breaks on ice. Protein concentration was measured using a BCA protein assay (Pierce #23227). 300 μg of protein was reduced with 5 mM Tris(2-carboxyethyl)phosphine hydrochloride (Sigma #C4706) at 37°C for 20 min and alkylated using 10 mM 2-chloroacetamide (Sigma #22790) for 20 min at room temperature in the dark. Proteins were digested with LysC (#129-02541; FUJIFILM Wako Chemicals, Osaka, Japan) for 3.5 h at 30°C. Samples were then diluted with 50 mM triethylammonium bicarbonate (Sigma #T7408) to reduce the urea concentration to 1.5 M, followed by an overnight peptide digestion with trypsin (Promega #V5113) at 37°C. Digest reactions were quenched by the addition of 10% trifluoroacetic acid (EMD Millipore #302031-M) to a final pH of 2.0. Sample desalting was performed using 35-350 μg C18 columns (HMM S18V; The Nest Group, Inc., Southborough, MA, USA) according to the manufacturer’ specifications. TiO2 (Hichrome Titansphere TiO2, 10 μm capacity, 100 mg, GL Sciences #5020-75010) was used for phosphoenrichment. Following peptide loading onto TiO2, the beads were sequentially washed with 1 M glycolic acid (Sigma #124737)/80% acetonitrile/5% trifluoroacetic acid, followed by 80% acetonitrile/0.2% trifluoroacetic acid and 20% acetonitrile before elution with 5% ammonium hydroxide. Enriched samples were desalted using 7-70 μg C18 columns (HUM S18V; The Nest Group, Inc., Southborough, MA, USA) according to the manufacturer’s specifications. Dried phosphopeptide samples were stored at -80°C and resuspended in 10% formic acid immediately prior to analysis. nLC-MS/MS was performed on a Q-Exactive Orbitrap Plus interfaced to a NANOSPRAY FLEX ion source and coupled to an Easy-nLC 1000 (Thermo Scientific). Fifty percent of each sample was analysed as 10 μl injections. Peptides were separated on a 27 cm fused silica emitter, 75 μm diameter, packed in-house with Reprosil-Pur 200 C18-AQ, 2.4 μm resin (Dr. Maisch, Ammerbuch-Entringen, Germany) using a linear gradient from 5% to 30% acetonitrile/0.1% formic acid over 180 min, at a flow rate of 250 nl/min. Peptides were ionised by electrospray ionisation using 1.9 kV applied immediately prior to the analytical column via a microtee built into the nanospray source with the ion transfer tube heated to 320°C and the S-lens set to 60%. Precursor ions were measured in a data-dependent mode in the orbitrap analyser at a resolution of 70,000 and a target value of 3e6 ions. The ten most intense ions from each MS1 scan were isolated, fragmented in the HCD cell, and measured in the Orbitrap at a resolution of 17,500.
Raw data were analysed with MaxQuant[72] (version 1.5.5.1) where they were searched against the mouse UniProt database (http://www.uniprot.org/, downloaded 04/12/2018) using default settings. Carbamidomethylation of cysteines was set as fixed modification, and oxidation of methionines, acetylation at protein N-termini, phosphorylation (on S, T or Y) were set as variable modifications. Enzyme specificity was set to trypsin with maximally 2 missed cleavages allowed. To ensure high confidence identifications, peptide-spectral matches, peptides, and proteins were filtered at a less than 1% false discovery rate (FDR). Label-free quantification in MaxQuant was used with a LFQ minimum ratio count of 2, Fast LFQ selected and the ‘skip normalisation’ option selected. […]

Data set [2] concerns PI3Kα-WT MEFs. As to the kind of experiment: Cell number by crystal violet staining, PI3Kα-WT MEFs. It is filed as cell-based, mouse. Particulars: 24h. As to the method:
MEFs were seeded at 5000 cells per well in 96-well plates in DMEM supplemented with 10% FBS and 1% P/S, and allowed to attach overnight. The next day, cells were serum-starved for 5 h prior to compound addition in fresh serum-free DMEM. After different time points, cells were rapidly washed with distilled H2O before fixed and stained in a solution of 0.5% crystal violet (Sigma-Aldrich #C0775) in 20% methanol (v:v) as described. Briefly, after 20 min incubation at room temperature on a rocking platform, fixed and stained cells were washed 3 times with distilled H2O and plates air-dried overnight. 200 μl methanol was next added to each well and the plates were incubated at room temperature for 20 min on a bench rocker, followed by measurement of optical density at 570 with a plate reader.

For `CCN1CCN(c2ccc(Nc3cc(Nc4cccc5c4N(C(C)=O)CC5)ccn3)cc2)CC1` [Compound 1938], in the data set on A549 cells, the “concentration at which the PIP3 response maxed out” value amounted to 10 µM. For the same compound, the “number of differentially phosphorylated peptides/sites relative to DMSO” value in the data set with PI3Kα-WT MEFs [1] (15 min) was 27; in the data set with PI3Kα-WT MEFs [1] (4h), 50. Further, the “log2FC, PI3Ka WT 4 h 1938 vs PI3Ka WT DMSO” value is listed as “Inf” in the data set on PI3Kα-WT MEFs [1] (phosphosite Cask_S544), -0.01008 with PI3Kα-WT MEFs [1] (phosphosite Cask_S545) and 0.9181 in the data set on PI3Kα-WT MEFs [1] (phosphosite Gm42715_S1683). The “log2FC, PI3Ka WT 15’ 1938 vs PI3Ka WT DMSO” value is -0.1674 with PI3Kα-WT MEFs [1] (phosphosite Cask_S545) and 1.032 in the data set with PI3Kα-WT MEFs [1] (phosphosite Gm42715_S1683). The “cell number (crystal violet staining)” value in the data set with PI3Kα-WT MEFs [2] is listed as “increase in cell number”.
Regarding “insulin: insulin, canonical activator of PI3Kα, used as positive control”, in the data set with A549 cells, the PIP3 response entry is given as “strong PIP3 response”. Moreover, the “number of differentially phosphorylated peptides/sites relative to DMSO” value with PI3Kα-WT MEFs [1] (15 min) was 11; with PI3Kα-WT MEFs [1] (4h), 18. Moreover, the “log2FC, PI3Ka WT 15’ Insulin vs PI3Ka WT DMSO” value in the data set on PI3Kα-WT MEFs [1] (phosphosite Cask_S545) is -0.06497; in the data set with PI3Kα-WT MEFs [1] (phosphosite Gm42715_S1683), 0.5546. In addition, the “log2FC, PI3Ka WT 4 h Insulin vs PI3Ka WT DMSO” value with PI3Kα-WT MEFs [1] (phosphosite Cask_S545) was -0.07238; in the data set with PI3Kα-WT MEFs [1] (phosphosite Gm42715_S1683), 1.083. Moreover, the “cell number (crystal violet staining)” value in the data set on PI3Kα-WT MEFs [2] is “did not induce cell cycle progression and an increase in cell number”.
